Assay: MAD study: safety (adverse events, vital signs, ECG, laboratory values, body weight)
Assay type: in vivo, human
Settings: for tolerability: once daily for 10 days
Protocol: (§1) Safety was assessed throughout the study based on AEs, physical examinations, weight measurements, electrocardiograms (ECGs), orthostatic vital sign assessments, and clinical laboratory evaluations. In order to thoroughly assess any potential effect of (R)-compound 1 on QT interval, continuous ECG recordings were also performed, starting approximately 1 hour before dosing, and continuing for approximately 24 hours after dosing on Days 1 and 10.
as §1, with “is” for “was”, “ECGs,” for “electrocardiograms (ECGs), orthostatic”, “sign (including orthostatic)” for “sign”, “performed” for “performed,”, “dosing” for “dosing,”, “10. If cardiodynamic analyses are undertaken, 12-lead ECGs will be extracted at predefined time points paired with PK samples.” for “10.”

[1] = 0.5 mg, normal salt diet, N = 9
[2] = 1.5 mg, normal salt diet, N = 9
[3] = 2.5 mg, normal salt diet, N = 6
[4] = all dose levels including placebo, treatment period
[5] = all subjects receiving (R)-compound 1

In the case of `CCC(=O)N[C@@H]1CCCc2c(-c3ccc4c(c3)CCC(=O)N4C)cncc21` [(R)-Compound 1, (R)—N-(4-(1-methyl-2-oxo-1,2,3,4-tetrahydroquinolin-6-yl)-5,6,7,8-tetrahydroisoquinolin-8-yl)propionamide], the “Any TEAE, % of subjects” value (0.5 mg NS, N = 9) is reported as “(11.1) %”, the “Any TEAE, number of subjects” value (0.5 mg NS, N = 9) is reported as 1 and the “Related TEAE, % of subjects” value (0.5 mg NS, N = 9) is reported as “(11.1) %”. For the same molecule, the “Related TEAE, number of subjects” value (0.5 mg NS, N = 9) was 1, the “Subjects with any AE” value [1] was 1 (11.1) n (%) and the “Subjects with any TEAE” value [1] was 1 (11.1) n (%). For the same molecule, the “Subjects with any TEAE by maximum severity: Mild” value (shortened to “Subjects with any TEAE … Mild”) [1] was 1 (11.1) n (%), the “Subjects with any TEAE by maximum severity: Moderate” value (“Subjects with any TEAE … Moderate” for short) [1] was 0 (0.0) n (%) and the “Subjects with any TEAE by maximum severity: Severe” value (“Subjects with any TEAE … Severe” below) [1] was 0 (0.0) n (%). The “Subjects with any TEAE leading to death” value [1] was 0 (0.0) n (%), the “Subjects with any TEAE leading to discontinuation” value [1] was 0 (0.0) n (%) and the “Subjects with any study drug-related TEAE” value [1] was 1 (11.1) n (%). For the same molecule, the “Subjects with any study drug-related TEAE by maximum severity: Mild” value [1] was 1 (11.1) n (%), the “Subjects with any study drug-related TEAE by maximum severity: Moderate” value [1] was 0 (0.0) n (%) and the “Subjects with any study drug-related TEAE by maximum severity: Severe” value [1] was 0 (0.0) n (%). For the same molecule, the “Subjects with any study drug-related TEAE leading to discontinuation” value [1] was 0 (0.0) n (%), the “Subjects with any study drug-related treatment-emergent SAE” value [1] was 0 (0.0) n (%) and the “Subjects with any treatment-emergent SAE” value [1] was 0 (0.0) n (%). The “Any TEAE, % of subjects” value (1.5 mg NS, N = 9) was “(11.1) %”, the “Any TEAE, number of subjects” value (1.5 mg NS, N = 9) was 1 and the “Related TEAE, % of subjects” value (1.5 mg NS, N = 9) was “(0) %”. For the same molecule, the “Related TEAE, number of subjects” value (1.5 mg NS, N = 9) was 0, the “Subjects with any AE” value [2] was 1 (11.1) n (%) and the “Subjects with any TEAE” value [2] was 1 (11.1) n (%). For the same molecule, the “Subjects with any TEAE … Mild” value [2] was 1 (11.1) n (%), the “Subjects with any TEAE … Moderate” value [2] was 0 (0.0) n (%) and the “Subjects with any TEAE … Severe” value [2] was 0 (0.0) n (%). For the same molecule, the “Subjects with any TEAE leading to death” value [2] was 0 (0.0) n (%), the “Subjects with any TEAE leading to discontinuation” value [2] was 0 (0.0) n (%) and the “Subjects with any study drug-related TEAE” value [2] was 0 (0.0) n (%). For the same molecule, the “Subjects with any study drug-related TEAE by maximum severity: Mild” value [2] was 0 (0.0) n (%), the “Subjects with any study drug-related TEAE by maximum severity: Moderate” value [2] was 0 (0.0) n (%) and the “Subjects with any study drug-related TEAE by maximum severity: Severe” value [2] was 0 (0.0) n (%). For the same molecule, the “Subjects with any study drug-related TEAE leading to discontinuation” value [2] was 0 (0.0) n (%), the “Subjects with any study drug-related treatment-emergent SAE” value [2] was 0 (0.0) n (%) and the “Subjects with any treatment-emergent SAE” value [2] was 0 (0.0) n (%). The “Any TEAE, % of subjects” value (2.5 mg LS, N = 9) was “(33.3) %”, the “Any TEAE, number of subjects” value (2.5 mg LS, N = 9) was 3 and the “Related TEAE, % of subjects” value (2.5 mg LS, N = 9) was “(22.2) %”. For the same molecule, the “Related TEAE, number of subjects” value (2.5 mg LS, N = 9) was 2, the “Any TEAE, % of subjects” value (2.5 mg NS, N = 6) was “(50) %” and the “Any TEAE, number of subjects” value (2.5 mg NS, N = 6) was 3. For the same molecule, the “Related TEAE, % of subjects” value (2.5 mg NS, N = 6) was “(33.3) %”, the “Related TEAE, number of subjects” value (2.5 mg NS, N = 6) was 2 and the “Subjects with any AE” value (2.5 mg, low salt diet, N = 9) was 3 (33.3) n (%). The “Subjects with any TEAE” value (2.5 mg, low salt diet, N = 9) was 3 (33.3) n (%), the “Subjects with any TEAE … Mild” value (2.5 mg, low salt diet, N = 9) was 3 (33.3) n (%) and the “Subjects with any TEAE … Moderate” value (2.5 mg, low salt diet, N = 9) was 0 (0.0) n (%). The “Subjects with any TEAE … Severe” value (2.5 mg, low salt diet, N = 9) was 0 (0.0) n (%), the “Subjects with any TEAE leading to death” value (2.5 mg, low salt diet, N = 9) was 0 (0.0) n (%) and the “Subjects with any TEAE leading to discontinuation” value (2.5 mg, low salt diet, N = 9) was 0 (0.0) n (%). The “Subjects with any study drug-related TEAE” value (2.5 mg, low salt diet, N = 9) was 2 (22.2) n (%), the “Subjects with any study drug-related TEAE by maximum severity: Mild” value (2.5 mg, low salt diet, N = 9) was 2 (22.2) n (%) and the “Subjects with any study drug-related TEAE by maximum severity: Moderate” value (2.5 mg, low salt diet, N = 9) was 0 (0.0) n (%). The “Subjects with any study drug-related TEAE by maximum severity: Severe” value (2.5 mg, low salt diet, N = 9) was 0 (0.0) n (%), the “Subjects with any study drug-related TEAE leading to discontinuation” value (2.5 mg, low salt diet, N = 9) was 0 (0.0) n (%) and the “Subjects with any study drug-related treatment-emergent SAE” value (2.5 mg, low salt diet, N = 9) was 0 (0.0) n (%). For the same molecule, the “Subjects with any treatment-emergent SAE” value (2.5 mg, low salt diet, N = 9) was 0 (0.0) n (%), the “Subjects with any AE” value [3] was 3 (50.0) n (%) and the “Subjects with any TEAE” value [3] was 3 (50.0) n (%). The “Subjects with any TEAE … Mild” value [3] was 3 (50.0) n (%), the “Subjects with any TEAE … Moderate” value [3] was 0 (0.0) n (%) and the “Subjects with any TEAE … Severe” value [3] was 0 (0.0) n (%). For the same molecule, the “Subjects with any TEAE leading to death” value [3] was 0 (0.0) n (%), the “Subjects with any TEAE leading to discontinuation” value [3] was 0 (0.0) n (%) and the “Subjects with any study drug-related TEAE” value [3] was 2 (33.3) n (%). The “Subjects with any study drug-related TEAE by maximum severity: Mild” value [3] was 2 (33.3) n (%), the “Subjects with any study drug-related TEAE by maximum severity: Moderate” value [3] was 0 (0.0) n (%) and the “Subjects with any study drug-related TEAE by maximum severity: Severe” value [3] was 0 (0.0) n (%). For the same molecule, the “Subjects with any study drug-related TEAE leading to discontinuation” value [3] was 0 (0.0) n (%), the “Subjects with any study drug-related treatment-emergent SAE” value [3] was 0 (0.0) n (%) and the “Subjects with any treatment-emergent SAE” value [3] was 0 (0.0) n (%). For the same molecule, the “Any TEAE, % of subjects” value (5 mg LS, N = 9) was “(33.3) %”, the “Any TEAE, number of subjects” value (5 mg LS, N = 9) was 3 and the “Related TEAE, % of subjects” value (5 mg LS, N = 9) was “(11.1) %”. For the same molecule, the “Related TEAE, number of subjects” value (5 mg LS, N = 9) was 1, the “Subjects with any AE” value (5.0 mg, low salt diet, N = 9) was 3 (33.3) n (%) and the “Subjects with any TEAE” value (5.0 mg, low salt diet, N = 9) was 3 (33.3) n (%). For the same molecule, the “Subjects with any TEAE … Mild” value (5.0 mg, low salt diet, N = 9) was 3 (33.3) n (%), the “Subjects with any TEAE … Moderate” value (5.0 mg, low salt diet, N = 9) was 0 (0.0) n (%) and the “Subjects with any TEAE … Severe” value (5.0 mg, low salt diet, N = 9) was 0 (0.0) n (%). For the same molecule, the “Subjects with any TEAE leading to death” value (5.0 mg, low salt diet, N = 9) was 0 (0.0) n (%), the “Subjects with any TEAE leading to discontinuation” value (5.0 mg, low salt diet, N = 9) was 0 (0.0) n (%) and the “Subjects with any study drug-related TEAE” value (5.0 mg, low salt diet, N = 9) was 1 (11.1) n (%). For the same molecule, the “Subjects with any study drug-related TEAE by maximum severity: Mild” value (5.0 mg, low salt diet, N = 9) was 1 (11.1) n (%), the “Subjects with any study drug-related TEAE by maximum severity: Moderate” value (5.0 mg, low salt diet, N = 9) was 0 (0.0) n (%) and the “Subjects with any study drug-related TEAE by maximum severity: Severe” value (5.0 mg, low salt diet, N = 9) was 0 (0.0) n (%). For the same molecule, the “Subjects with any study drug-related TEAE leading to discontinuation” value (5.0 mg, low salt diet, N = 9) was 0 (0.0) n (%), the “Subjects with any study drug-related treatment-emergent SAE” value (5.0 mg, low salt diet, N = 9) was 0 (0.0) n (%) and the “Subjects with any treatment-emergent SAE” value (5.0 mg, low salt diet, N = 9) was 0 (0.0) n (%). The “Subjects with any AE” value (Overall (R)-compound 1, N = 42) was 11 (26.2) n (%), the “Subjects with any TEAE” value (Overall (R)-compound 1, N = 42) was 11 (26.2) n (%) and the “Subjects with any TEAE … Mild” value (Overall (R)-compound 1, N = 42) was 11 (26.2) n (%). For the same molecule, the “Subjects with any TEAE … Moderate” value (Overall (R)-compound 1, N = 42) was 0 (0.0) n (%), the “Subjects with any TEAE … Severe” value (Overall (R)-compound 1, N = 42) was 0 (0.0) n (%) and the “Subjects with any TEAE leading to death” value (Overall (R)-compound 1, N = 42) was 0 (0.0) n (%). For the same molecule, the “Subjects with any TEAE leading to discontinuation” value (Overall (R)-compound 1, N = 42) was 0 (0.0) n (%), the “Subjects with any study drug-related TEAE” value (Overall (R)-compound 1, N = 42) was 6 (14.3) n (%) and the “Subjects with any study drug-related TEAE by maximum severity: Mild” value (Overall (R)-compound 1, N = 42) was 6 (14.3) n (%). The “Subjects with any study drug-related TEAE by maximum severity: Moderate” value (Overall (R)-compound 1, N = 42) was 0 (0.0) n (%), the “Subjects with any study drug-related TEAE by maximum severity: Severe” value (Overall (R)-compound 1, N = 42) was 0 (0.0) n (%) and the “Subjects with any study drug-related TEAE leading to discontinuation” value (Overall (R)-compound 1, N = 42) was 0 (0.0) n (%). For the same molecule, the “Subjects with any study drug-related treatment-emergent SAE” value (Overall (R)-compound 1, N = 42) was 0 (0.0) n (%), the “Subjects with any treatment-emergent SAE” value (Overall (R)-compound 1, N = 42) was 0 (0.0) n (%) and the “Any TEAE, % of subjects” value (Total (R)-Compound 1, N = 42) was “(26.2) %”. For the same molecule, the “Any TEAE, number of subjects” value (Total (R)-Compound 1, N = 42) was 11, the “Related TEAE, % of subjects” value (Total (R)-Compound 1, N = 42) was “(14.3) %” and the “Related TEAE, number of subjects” value (Total (R)-Compound 1, N = 42) was 6. The “decrease in mean BW from baseline” value [4] was ≤ 2 kg, the “decrease in mean body mass index from baseline” value [4] was < 0.65 kg/m^2 and the “subjects experiencing a TEAE” value [5] was 11 (26.2%). For the same molecule, the “subjects experiencing a TEAE considered related to study drug” value [5] was 6 (14.3%), the subjects experiencing dizziness [5] was 2 (4.8%) and the subjects experiencing headache [5] was 4 (9.5%). The “subjects experiencing postural dizziness” value [5] was 3 (7.1%), the “BP as compared to placebo” value (healthy subjects) was “no clinically significant changes” and the “all other TEAEs (presyncope, eye irritation, abdominal pain, constipation, viral infection, rhinitis, back pain, anxiety, dry throat, dysphonia), subjects each” value (human, in vivo, oral, 10 days) was 1 subject. For the same molecule, the “reduction in glomerular filtration rate” value (mild) was < 15%, the “plasma sodium and potassium levels” value (multiple doses) was “Mild, dose-dependent decreases in plasma sodium levels and increases in plasma potassium levels” and the tolerability (healthy subjects) was “safe and well tolerated”. The tolerability (healthy subjects, listed as (R)-compound 1) was “safe and well tolerated”, the “decrease in mean BMI from baseline” value (overall (R)-compound 1 group) was −0.442 kg/m^2 and the “decrease in mean body weight from baseline” value (overall (R)-compound 1 group) was -1.31 kg. The QTcF (up to 5 mg QD for 10 days) was “no meaningful changes”.

Reference: patent US20240277698A1, “METHODS OF USING ALDOSTERONE SYNTHASE INHIBITORS” (CINCOR PHARMA, INC., priority 2021, published 2024)
